# Experimental data from patent EP0198605A1, “Prophylaxis of pharmacotherapy of liver disorders” (TEIJIN LIMITED, priority 1985, dated 1986).
# Like-named read-outs stand apart in the source and are kept apart here.
# What was measured:
# rat liver cells = assay: Hepatic necrocytosis induced by carbon tetrachloride (in vitro), trypan blue exclusion test; assay type: cell-based
# Protocol: Liver cells were prepared according to a method disclosed in Nakamura et al "Proteins, Nucleic Acids, and Enzymes" Vol. 24, pages 55-76 (1981). That is, the rat liver cells, which were previously peritoneally treated with phenobarbital at 80 mg/kg/day for 3 days, were collected by centrifugal separation after being subjected to 0.05% collagenase perfusion.
# The liver cells thus obtained were suspended in a William's E culture medium containing 10% fetal calf serum, dexamethasone (10^-6 M) and insulin (0.02 unit/ml). A 3 ml amount of the cell dispersion having a cell content of 5 x 10^S cells/ml was placed in a 25 mm Falcon dish and was then incubated at a temperature of 37°C under an atmosphere of 5% C02 and 95% air for 3 hours. After 3 hours incubation, the number of surviving liver cells in the incubated dish was measured according to a trypan blue exclusion test. The average value thereof was used as a control value for the survival percentage of the liver cells in the pre-incubation.
# Then, a culture medium containing 2-[2-(3-heptyl-4-methyl-4-thiazolin-2-ylidene) methyll-3-heptyl thiazolinium iodide (i.e., pionin) dissolved in ethanol was substituted after removing non-adhesive cells and was then incubated for a further one hour. The concentrations of pionin in the culture medium were 0.94 x 10^-6, 1.8x10^-7, 1x10^-8, 1x10^-9, and I x 10^-10 mole and, as a control or comparative test, the culture medium itself, the culture medium containing 0.5% of ethanol, and the culture medium containing 0.25 µm/ml of carbon tetrachloride were used.
# Then, 0.25 pm/ml of carbon tetrachloride was added to each culture dish and the incubation was carried out for a further 3 hours under the same conditions mentioned above. No further carbon tetrachloride was added to the comparative culture containing carbon tetrachloride. After 3 hours incubation, the number of survival liver cells was measured according to a trypan blue exclusion test. The percentage ratio of the mean survival number to the survival number of the above-mentioned pre-incubation was then calculated.
# The results are shown in Table 1, in which the mean survival cell percentage (%) and standard deviation thereof in the culture dish containing 4 to 29 liver cells (i.e., N). Statistical significance was evaluated by Student's t-test.
# [1] = test system: hepatic necrocytosis induced by carbon tetrachloride; assay: Hepatic necrocytosis induced by carbon tetrachloride (in vivo), serum GOT and GPT; set-up: species or system SD male rats; conditions: for Enzyme Activity GOT (U/L) / Enzyme Activity GPT (U/L): 6 administrations, CCl4 0.5 ml/kg i.p.
# Protocol: In the evaluation tests, 6 weeks old SD male rats were used. […] The rats were freely fed or supplied with a solid feed and drinking water.
# Carbon tetrachloride (CC14) was diluted with an olive oil and was peritoneally injected in each rat at a dosage of 0.5 ml/kg. To the control group, only CC14 diluted with the olive oil and a 5% gum arabic solution containing no active ingredient were administered. Furthermore, only the olive oil but no CC14 was administered to the olive oil injection group in the Tables.
# The methincyanine compounds listed in Tables 4 to 6 were administered as follows. Methincyanine compounds were diluted 100 times with dextrose dissolved in 5% gum arabic solutions. The administration schedules were such that the methiocyanine compounds were administered 6 times in total from 5 days before the CC14 injection to the day of the injection.
# Blood was sampled from the orbital veniplex of the rat and was allowed to stand at room temperature for one hour. The blood sample was then centrifugally separated at 2800 rpm for 10 minutes. The resultant supernatant was used as a serum sample.
# The determination of GOT and GPT in the serum sample was carried out by using a determination kit (available from Boeklinger-Yamanouchi Co.) and the results were recorded in an automatic analyzer (available from FLEXIGEM Co.).
# rats = conditions: oral, cited from earlier work
# [2] = test system: hepatic disorders induced by D-galactosamine; assay: Hepatic disorders induced by D-galactosamine in rats (serum GOT, GPT, bilirubin, complement value); assay type: in vivo, Wister male rats; conditions: for Bilirubin / Complement value (%) / Enzyme activity GOT (K.U.) / Enzyme activity GPT (K.U.): GalN 250 mg/kg i.p., serum two days after GalN
# [3] = Table 2, intravenous, 0.1 µg/kg
# [4] = Table 2, intravenous, 0.5 µg/kg
smiles,measurement,setting,value
"CCCCCCCN1C(C)=CSC1=Cc1scc(C)[n+]1CCCCCCC [Pionin, 2-[2-(3-heptyl-4-methyl-4-thiazolin-2-ylidene)methyl]-3-heptyl-4-methyl thiazolinium iodide]",viability at 0.94 µM,"rat liver cells; Rattus norvegicus, CCl4 + Pionin 0.94 x 10^-6 M, 3 hours after CCl4, mean ± standard deviation, read-out: Survival ratio (%)",43.6 ± 11.6%
same,viability at 0.01 µM,"rat liver cells; Rattus norvegicus, CCl4 + Pionin 1 x 10^-8 M, 3 hours after CCl4, mean ± standard deviation, read-out: Survival ratio (%)",63.5 ± 19%
same,viability at 0.001 µM,"rat liver cells; Rattus norvegicus, CCl4 + Pionin 1 x 10^-9 M, 3 hours after CCl4, mean ± standard deviation, read-out: Survival ratio (%)",63.4 ± 6.8%
same,viability at 0.0001 µM,"rat liver cells; Rattus norvegicus, CCl4 + Pionin 1 x 10^-10 M, 3 hours after CCl4, mean ± standard deviation, read-out: Survival ratio (%)",63.2 ± 23%
same,viability at 0.18 µM,"rat liver cells; Rattus norvegicus, CCl4 + Pionin 1.8 x 10^-7 M, 3 hours after CCl4, mean ± standard deviation, read-out: Survival ratio (%)",47.1 ± 8.1%
same,inhibiting liver necrocytosis (result in words),"rat liver cells; in vitro, summary of Table 1",has an activity capable of inhibiting liver necrocytosis
same,Enzyme Activity GOT (U/L),"[1]; Table 4, oral, 1 µg/kg",678.3 ± 76.5 U/L
same,Enzyme Activity GPT (U/L),"[1]; Table 4, oral, 1 µg/kg",209.0 ± 31.2 U/L
same,Enzyme Activity GOT (U/L),"[1]; Table 4, oral, 3 µg/kg",754.5 ± 108.8 U/L
same,Enzyme Activity GPT (U/L),"[1]; Table 4, oral, 3 µg/kg",269.7 ± 50.3 U/L
same,Enzyme Activity GOT (U/L),"[1]; Table 4, oral, 10 µg/kg",559.2 ± 56.6 U/L
same,Enzyme Activity GPT (U/L),"[1]; Table 4, oral, 10 µg/kg",165.8 ± 25.9 U/L
same,Enzyme Activity GOT (U/L),"[1]; Table 4, oral, 30 µg/kg",946.8 ± 110.6 U/L
same,Enzyme Activity GPT (U/L),"[1]; Table 4, oral, 30 µg/kg",311.4 ± 49.4 U/L
same,Enzyme Activity GOT (U/L),"[1]; Table 6, oral, 10 µg/kg",807 ± 172 U/L
same,Enzyme Activity GPT (U/L),"[1]; Table 6, oral, 10 µg/kg",251 ± 83 U/L
same,inhibiting liver necrocytosis induced by CCl4 (result in words),"[1]; in vivo, summary of Tables 4 to 6",has an activity capable of inhibiting liver necrocytosis induced by CCl4
same,LD50,rats; female rats,503 mg/kg
same,LD50,rats; male rats,460 mg/kg
same,Bilirubin,[2]; [3],0.51 mg/dL
same,Complement value (%),[2]; [3],88.2%
same,Enzyme activity GOT (K.U.),[2]; [3],550 ± 160 K.U.
same,Enzyme activity GPT (K.U.),[2]; [3],510 ± 62 K.U.
same,Bilirubin,[2]; [4],0.35 mg/dL
same,Complement value (%),[2]; [4],96.6%
same,Enzyme activity GOT (K.U.),[2]; [4],420 ± 30 K.U.
same,Enzyme activity GPT (K.U.),[2]; [4],300 ± 55 K.U.
same,Bilirubin,"[2]; Table 2, intravenous, 1 µg/kg",0.44 mg/dL
same,Complement value (%),"[2]; Table 2, intravenous, 1 µg/kg",91.2%
same,Enzyme activity GOT (K.U.),"[2]; Table 2, intravenous, 1 µg/kg",780 ± 29 K.U.
same,Enzyme activity GPT (K.U.),"[2]; Table 2, intravenous, 1 µg/kg",600 ± 40 K.U.
same,Bilirubin,"[2]; Table 2, intravenous, 10 µg/kg",0.77 mg/dL
same,Complement value (%),"[2]; Table 2, intravenous, 10 µg/kg",87.6%
same,Enzyme activity GOT (K.U.),"[2]; Table 2, intravenous, 10 µg/kg",1036 ± 50 K.U.
same,Enzyme activity GPT (K.U.),"[2]; Table 2, intravenous, 10 µg/kg",980 ± 39 K.U.
same,Bilirubin,"[2]; Table 3, oral, 0.1 µg/kg",0.77 mg/dL
same,Complement value (%),"[2]; Table 3, oral, 0.1 µg/kg",86.1%
same,Enzyme activity GOT (K.U.),"[2]; Table 3, oral, 0.1 µg/kg",1200 ± 198 K.U.
same,Enzyme activity GPT (K.U.),"[2]; Table 3, oral, 0.1 µg/kg",1003 ± 87 K.U.
same,Bilirubin,"[2]; Table 3, oral, 0.5 µg/kg",0.36 mg/dL
same,Complement value (%),"[2]; Table 3, oral, 0.5 µg/kg",91.1%
same,Enzyme activity GOT (K.U.),"[2]; Table 3, oral, 0.5 µg/kg",622 ± 100 K.U.
same,Enzyme activity GPT (K.U.),"[2]; Table 3, oral, 0.5 µg/kg",550 ± 51 K.U.
same,Bilirubin,"[2]; Table 3, oral, 1 µg/kg",0.55 mg/dL
same,Complement value (%),"[2]; Table 3, oral, 1 µg/kg",92.3%
same,Enzyme activity GOT (K.U.),"[2]; Table 3, oral, 1 µg/kg",710 ± 30 K.U.
same,Enzyme activity GPT (K.U.),"[2]; Table 3, oral, 1 µg/kg",440 ± 13 K.U.
same,Bilirubin,"[2]; Table 3, oral, 10 µg/kg",0.88 mg/dL
same,Complement value (%),"[2]; Table 3, oral, 10 µg/kg",88.8%
same,Enzyme activity GOT (K.U.),"[2]; Table 3, oral, 10 µg/kg",1350 ± 136 K.U.
same,Enzyme activity GPT (K.U.),"[2]; Table 3, oral, 10 µg/kg",1200 ± 188 K.U.
same,inhibition of liver disorders induced by D-galactosamine (result in words),[2]; summary of Tables 2 and 3,can inhibit liver disorders induced by D-galactosamine
